Like-named read-outs stand apart in the source and are kept apart here.
Key:
[1] = molecular target: human norepinephrine transporter (Homo sapiens (Human), UniProt P23975); test: Human NET (norepinephrine transporter) uptake assay; format: cell-based; conditions: read-out: hNET Ki
Method in brief: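 HEK293F cells transfected with human NET were thawed, plated at about 60,000 cells/well and held at 37 °C for at least 3 h. Compounds came from 10 mM DMSO stocks, with nomifensine as control, in 1×HBSS/0.02 M HEPES. Uptake was followed with a neurotransmitter transporter dye, dosed as % of vendor reconstitution, in triplicate.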

[2] = molecular target: human dopamine transporter (Homo sapiens (Human), UniProt Q01959); test: Human DAT (dopamine transporter) uptake assay; format: cell-based; conditions: read-out: hDAT Ki
human dopamine transporter, sequence (Q01959 whole entry): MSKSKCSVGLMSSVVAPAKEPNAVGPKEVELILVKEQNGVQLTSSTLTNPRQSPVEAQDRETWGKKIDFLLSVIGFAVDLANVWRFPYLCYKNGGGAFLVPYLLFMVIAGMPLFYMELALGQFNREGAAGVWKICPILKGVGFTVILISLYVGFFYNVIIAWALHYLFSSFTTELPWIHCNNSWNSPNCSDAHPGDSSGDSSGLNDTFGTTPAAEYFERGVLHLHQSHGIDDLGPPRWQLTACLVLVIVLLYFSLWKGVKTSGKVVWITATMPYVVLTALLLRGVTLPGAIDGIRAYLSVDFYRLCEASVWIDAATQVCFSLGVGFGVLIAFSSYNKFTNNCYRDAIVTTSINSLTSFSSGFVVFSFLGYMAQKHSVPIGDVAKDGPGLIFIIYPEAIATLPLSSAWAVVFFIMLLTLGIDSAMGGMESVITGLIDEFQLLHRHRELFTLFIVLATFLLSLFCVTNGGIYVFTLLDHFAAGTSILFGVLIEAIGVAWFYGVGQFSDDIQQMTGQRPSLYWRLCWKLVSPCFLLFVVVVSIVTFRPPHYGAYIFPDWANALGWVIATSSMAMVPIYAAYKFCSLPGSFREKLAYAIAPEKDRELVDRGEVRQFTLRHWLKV
Method in brief: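 Uptake inhibition was measured in HEK293F cells transfected with human DAT, plated at ~60,000 cells/well and settled ≥3 h at 37 °C. Compounds came from 10 mM DMSO stocks. Read-out was uptake of a fluorescent neurotransmitter transporter dye in HBSS with 0.02 M HEPES, with dye level given as % of vendor reconstitution; n=3.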

[3] = molecular target: human serotonin transporter (Homo sapiens (Human), UniProt P31645); test: Human SERT (serotonin transporter) uptake assay; format: cell-based; conditions: read-out: hSERT Ki
human serotonin transporter, sequence (P31645 whole entry): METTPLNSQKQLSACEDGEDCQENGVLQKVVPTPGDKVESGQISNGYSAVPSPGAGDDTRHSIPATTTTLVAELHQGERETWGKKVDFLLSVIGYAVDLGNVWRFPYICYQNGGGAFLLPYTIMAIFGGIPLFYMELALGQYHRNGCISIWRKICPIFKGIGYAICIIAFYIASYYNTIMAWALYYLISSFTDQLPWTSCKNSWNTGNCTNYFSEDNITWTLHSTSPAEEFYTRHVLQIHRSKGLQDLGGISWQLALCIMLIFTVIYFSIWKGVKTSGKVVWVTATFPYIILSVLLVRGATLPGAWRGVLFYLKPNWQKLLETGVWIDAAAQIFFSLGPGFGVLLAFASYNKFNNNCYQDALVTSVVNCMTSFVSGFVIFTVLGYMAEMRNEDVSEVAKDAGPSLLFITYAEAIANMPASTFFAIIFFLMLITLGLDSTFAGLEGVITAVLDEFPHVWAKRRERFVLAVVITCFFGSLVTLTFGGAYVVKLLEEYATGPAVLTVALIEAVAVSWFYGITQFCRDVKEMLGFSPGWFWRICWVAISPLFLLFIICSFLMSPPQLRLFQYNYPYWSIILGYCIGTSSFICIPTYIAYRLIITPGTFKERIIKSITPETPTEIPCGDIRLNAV
Method in brief: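 HEK293F cells transfected with human SERT, about 60,000 per well, settled for ≥3 h at 37° C before compound addition. Uptake was followed with a fluorescent transporter dye in HBSS with 0.02 M HEPES. Background came from 10 μM fluoxetine, nomifensine was the control, n=3.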

CYP3A4 = CYP3A4 (Homo sapiens (Human), UniProt P08684); test: Cytochrome P450 inhibition assay, recombinant CYP3A4 (BFC substrate); format: in vitro ADME; conditions: recombinant enzyme
CYP3A4, sequence (P08684 whole entry): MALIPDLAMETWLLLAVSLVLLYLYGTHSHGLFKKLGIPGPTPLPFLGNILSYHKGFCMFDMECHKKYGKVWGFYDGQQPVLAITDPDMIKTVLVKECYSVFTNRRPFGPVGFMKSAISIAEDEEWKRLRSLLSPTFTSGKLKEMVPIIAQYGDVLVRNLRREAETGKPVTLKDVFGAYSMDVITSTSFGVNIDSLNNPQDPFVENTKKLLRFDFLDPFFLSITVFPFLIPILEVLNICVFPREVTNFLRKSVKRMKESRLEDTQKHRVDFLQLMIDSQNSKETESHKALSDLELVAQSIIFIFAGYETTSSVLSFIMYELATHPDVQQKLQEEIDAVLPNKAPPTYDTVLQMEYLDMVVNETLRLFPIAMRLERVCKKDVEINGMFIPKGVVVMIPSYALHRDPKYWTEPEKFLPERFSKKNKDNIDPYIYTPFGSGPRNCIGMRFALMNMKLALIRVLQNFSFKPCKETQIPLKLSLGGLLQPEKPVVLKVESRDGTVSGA

CYP2D6 = CYP2D6 (Homo sapiens (Human), UniProt P10635); test: Cytochrome P450 inhibition assay, recombinant CYP2D6 (MAMC substrate); format: in vitro ADME; conditions: recombinant enzyme
CYP2D6, sequence (P10635 whole entry): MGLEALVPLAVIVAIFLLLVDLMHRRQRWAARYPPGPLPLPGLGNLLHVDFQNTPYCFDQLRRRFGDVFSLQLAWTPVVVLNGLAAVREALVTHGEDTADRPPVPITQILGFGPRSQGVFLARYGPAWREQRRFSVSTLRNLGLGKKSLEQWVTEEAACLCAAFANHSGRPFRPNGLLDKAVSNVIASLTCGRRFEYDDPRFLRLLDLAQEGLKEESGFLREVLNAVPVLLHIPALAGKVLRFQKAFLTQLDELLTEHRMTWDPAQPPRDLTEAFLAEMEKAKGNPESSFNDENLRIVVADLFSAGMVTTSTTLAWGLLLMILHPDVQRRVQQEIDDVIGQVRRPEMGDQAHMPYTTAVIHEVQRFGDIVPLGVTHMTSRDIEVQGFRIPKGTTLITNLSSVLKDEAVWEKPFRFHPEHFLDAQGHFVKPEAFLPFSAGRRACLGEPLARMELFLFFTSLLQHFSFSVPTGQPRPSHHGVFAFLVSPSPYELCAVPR
Experimental: Recombinant enzymes, 3A4 and 2D6, generated using the ABL yeast expression system were used. […] The assay mixture also included K2HPO4 (pH 7.4; conc. 0.1 M) and NADPH (conc. 1 mM). The incubation time was 30 minutes, and the reference inhibitor was A-naphthoflavone. For CYP2D6, the enzyme amount was 2 pmol per well, and the substrate (7-methoxy-4-(aminomethyl)-coumarin; MAMC) was used at 20 μM. The assay mixture also included K2HPO4 (pH 7.4; conc. 0.1 M) and NADPH (conc. 0.06 mM). The incubation time was 35 minutes, and the reference inhibitor was quinidine.
Briefly, 0.6 μL of serially diluted compound was added to 75 μL water. 10 μL of diluted compound in water was then added to each assay plate. 20 μL of a K2HPO4, enzyme, and substrate mixture was added. After 10 minutes of room temperature pre-incubation, 10 μL of NADPH was added, and the plates were placed at 37° C. for 30 or 35 minutes depending on the enzyme being tested. After the incubation was complete, 20 μL of 0.1% Tris/ACN was added to the plate. The plate was read on a FluorStar fluorescence plate reader.

[4] = pKa of basic centres (Table 1); format: physicochemical
[5] = first base, e.g., an aliphatic primary, secondary, or tertiary amine, read-out: pKa (Base 1)
[6] = second base in the same molecule (if present), read-out: pKa (Base 2)

human norepinephrine transporter, sequence (P23975 whole entry): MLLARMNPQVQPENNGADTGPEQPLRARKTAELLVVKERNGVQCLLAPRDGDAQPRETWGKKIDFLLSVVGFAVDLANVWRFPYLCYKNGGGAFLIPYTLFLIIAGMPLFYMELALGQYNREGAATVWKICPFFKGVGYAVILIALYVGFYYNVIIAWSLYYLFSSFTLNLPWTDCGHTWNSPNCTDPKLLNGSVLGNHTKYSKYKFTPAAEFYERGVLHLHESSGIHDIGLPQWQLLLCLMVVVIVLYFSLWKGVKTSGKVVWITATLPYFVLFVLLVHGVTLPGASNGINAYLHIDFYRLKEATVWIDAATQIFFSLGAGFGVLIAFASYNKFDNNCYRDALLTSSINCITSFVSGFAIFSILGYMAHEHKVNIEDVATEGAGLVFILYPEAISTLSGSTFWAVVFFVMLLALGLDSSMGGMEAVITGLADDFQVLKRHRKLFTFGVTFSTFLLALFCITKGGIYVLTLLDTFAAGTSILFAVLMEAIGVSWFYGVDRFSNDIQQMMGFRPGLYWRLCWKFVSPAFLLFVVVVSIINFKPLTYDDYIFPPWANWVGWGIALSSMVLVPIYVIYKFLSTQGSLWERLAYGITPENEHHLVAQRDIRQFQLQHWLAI

Structure (SMILES)	Ki [1] [nM]	Ki [2] [nM]	Ki [3] [nM]	IC50 (CYP3A4) [nM]	IC50 (CYP2D6) [nM]	pKa [4, 5]	pKa [4, 6]
CNC[C@@H](c1ccc(Cl)c(Cl)c1)[C@@H](O)c1cccc(N2CCOCC2)c1 [Compound 125]	371	65.3	725	4800	2400	9.4	5.1
CNC[C@H](c1ccc(Cl)c(Cl)c1)[C@@H](O)c1cccc(Br)c1 [Compound 161]	38.5	103	616	9200	160	9.4	–
CNC[C@H](c1ccc(Cl)c(Cl)c1)[C@H](O)c1ccncc1 (racemic) [Compound 155]	17.8	46.6	73.7	≥ 20000	1400	9.3	5.3
CNC[C@H](c1ccc2ccccc2c1)[C@H](O)c1ccc(Cl)s1 (single isomer, unassigned) [Compound 58]	5.1	127	5.9	9600	120	9.7	–
CNC[C@H](c1ccc2ccccc2c1)[C@H](O)c1ccncc1 [Compound 12]	1.6	52.6	2.7	20000	880	9.6	5.4
CNC[C@@H](c1ccc(Cl)c(Cl)c1)[C@@H](O)c1ccsc1 [Compound 106]	80.6	19.7	742	20000	3900	9.5	–
CNC[C@H](c1ccc(Cl)c(Cl)c1)[C@@H](O)c1ccccc1S(C)(=O)=O [Compound 170]	306	40	2010	4800	380	9.3	–
CNC[C@H](c1ccc2ccccc2c1)[C@H](OCCO)c1ccccc1 [Compound 32]	2.7	15.8	0.7	20000	560	9.6	–
CNCC(Cc1ccccc1)c1ccc2cccnc2c1 (stereo not shown) [Compound 75]	10.4	505	2.1	16000	560	10	4.8
CNC[C@@H](c1ccc(Cl)c(Cl)c1)[C@@H](O)c1cccc(N(C)C)c1 (single isomer, unassigned) [Compound 108]	88.5	57.1	754	≥ 20000	2200	9.5	4.9
NC[C@@H](c1ccc2ccccc2c1)[C@@H](O)c1ccc(Cl)nc1 [Compound 126]	500	125	107	20000	3900	8.3	–
CNC[C@@H](c1ccc(Cl)c(Cl)c1)[C@@H](O)c1cccc(SC)c1 [Compound 120]	262	88.5	662	9000	2400	9.4	–
CNC[C@@H](c1ccc2ccccc2c1)[C@@H](O)c1cncc(OC)c1 [Compound 122]	273	49.6	124	20000	3400	9.6	4.5
CNC[C@H](c1ccc(Cl)c(Cl)c1)[C@H](O)c1cccc(N)c1 [Compound 24]	2.2	21.9	71.4	20000	1400	9.4	4.3
CNC[C@@H](c1ccc(Cl)c(Cl)c1)[C@@H](O)c1cccc(NS(=O)(=O)C(F)(F)F)c1 [Compound 121]	270	5	2850	20000	20000	9.4	–
CNC[C@H](c1ccc2ccccc2c1)[C@H](O)c1cc(F)cc(F)c1 (racemic) [Compound 41]	3.2	10.6	52.5	19000	130	9.6	–
